Reference: patent publication US11672841B2, “Methods for treating heart disease in a subject with Friedreich's ataxia by an aromatic-cationic peptide” (Stealth BioTherapeutics Inc., priority 2013, dated 2023)
Non-standard residues stand in square brackets, D forms with d. Residues, ends and D or L forms follow the SMILES beside them. No end group written: not given here. Dmt = Cc1cc(O)cc(C)c1C[C@H](N)C(=O)O

Experiments:
mu-opioid receptor = mu-opioid receptor (Homo sapiens, UniProt P35372); assay: Mu-opioid receptor agonist activity; settings: stated without a test
Chain of mu-opioid receptor (P35372 whole entry, species assumed): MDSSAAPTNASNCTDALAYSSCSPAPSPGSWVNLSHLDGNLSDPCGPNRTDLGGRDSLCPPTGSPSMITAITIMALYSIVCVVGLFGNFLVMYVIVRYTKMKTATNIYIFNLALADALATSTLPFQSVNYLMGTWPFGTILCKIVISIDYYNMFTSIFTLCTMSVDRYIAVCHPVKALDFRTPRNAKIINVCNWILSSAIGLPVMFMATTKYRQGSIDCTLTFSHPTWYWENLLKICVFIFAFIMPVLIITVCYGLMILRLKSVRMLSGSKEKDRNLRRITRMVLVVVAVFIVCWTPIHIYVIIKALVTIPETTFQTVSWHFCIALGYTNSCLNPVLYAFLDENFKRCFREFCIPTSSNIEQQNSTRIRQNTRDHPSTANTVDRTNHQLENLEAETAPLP

[1] = system: several mammalian cell types; settings: energy-independent manner (Zhao, et al., 2003); cited from earlier work
[2] = system: fibroblasts from Friedreich's ataxia (FRDA) patients; settings: 1-10 μM peptide 24 hours, then 5 μm Fe/HQ for 5 hours
Description: Iron with hydroquinone (HQ) induces oxidative stress in cells because HQ forms a lipophilic chelate with iron and rapidly transfers the metal across the normally impermeable plasma membrane.
After 24 hours, the media is changed and the cells are treated with 5 μm Fe/HQ for 5 hours.

With F[dR]FK-NH2 the “mu-opioid receptor agonist activity” value (mu-opioid receptor) was “does not have mu-opioid receptor agonist activity”.

In the case of 2′,6′-Dmt-D-Arg-Phe-Lys-NH2, the “penetration of the plasma membrane” value [1] is given as “readily penetrates the plasma membrane”.

With `Cc1cc(O)cc(C)c1C[C@H](NC(=O)[C@H](N)CCCNC(=N)N)C(=O)N[C@@H](CCCCN)C(=O)N[C@@H](Cc1ccccc1)C(N)=O` [D-Arg-2′,6′-Dmt-Lys-Phe-NH2] (H-[dR][Dmt]KF-NH2) the “survival and cytotoxicity by morphologic appearance” value [2] was “reduced evidence of cytotoxicity”.

In the case of Tyr-D-Arg-Phe-Lys-NH2, the “mu-opioid receptor agonist activity” value (mu-opioid receptor) is reported as “has mu-opioid receptor agonist activity”.
